Results on 1 compound are retold here after patent publication US5204311A, “Ethanediimidic acid bis[(arylalkylidene)hydrazide] color-formers” (Minnesota Mining and Manufacturing Company, priority 1991, dated 1993).

A value given as a limit tells only on which side of the number the result lay.

The nature of data set [1]: Color (Hunter coordinates) of Ni complex, swabbed on Ni-coated receptor (CF) sheet. The data set is classed as physicochemical. Set-up: key to Hunter coordinate a / Hunter Coordinates a: Hunter a: +a red, -a green; key to Hunter coordinate b / Hunter Coordinates b: Hunter b: +b yellow, -b blue. As to the method: In general, the colors of the complexes, as listed in Table 2 and Experiments 4, 6, and 7 below, were determined by preparing a 1% solution of the color-former or mixture of color-formers in an appropriate solvent. Unless otherwise indicated, the solvent was composed of a mixture of tributyl phosphate (26.5%), diethyl phthalate (17.6%), and cyclohexane (55.9%). The images were formed by applying two stripes of the solution to a substrate coated with a Ni^2+ coated receptor sheet using a cotton tipped applicator swab. Rapid and complete development of the image was achieved by passing the sheet through a hot shoe adjusted to 102° C., making a revolution every 10 seconds. The visually observed colors were measured and recorded.
One method of color measurement is to determine the color's position in color space. One color space system is the Hunter System; see F. W. Billmeyer, Jr., and M. Saltzman, Principles of Color Technology; John Wiley & Sons; New York, N.Y.; Ch. 2 & 3, 1981. In this system three mutually perpendicular axes (L, a, and b) are needed to define a color. "L" (+z axis) represents the lightness or darkness of the image; "a" (x axis) represents the amount of red or green (+a is red, -a is green); and "b" (y axis) represents the amount of yellow or blue (+b is yellow, -b is blue). By measuring a material's L, a, and b values, the color of one sample can be compared with that of other samples. Another value used in the Hunter System is Chroma (C). Chroma is defined by the equation [C=(a^2 +b^2)^1/2 ] and represents the distance of the image coordinates from the origin. The greater the Chroma, the more intense the image. Chroma is used to compare images cf the same hue. Because the color of a sample is also dependent upon the color temperature of the illuminating source, the angle at which the sample is illuminated, the angle at which the illumination is reflected, and the angle of the retina illuminated, these all need to be specified. Many instruments have been developed to record these values. One such instrument is the HunterLab LabScan II. This instrument is capable of automatically determining the L, a, and b values for a given sample, and was used for the following examples.
The L, a, and b color coordinates of the more uniform stripe were measured for 45°/0° reflectance on a HunterLab LabScan II, secondary observer, using illuminant C. The observed (image) color and the Hunter coordinates for Ni^2+ complexes of the yellow color-formers of this invention are given in Table 2.
A 1% solution of the condensation product in the encapsulation fill mix was swabbed onto a carbonless paper CF sheet (sold by the 3M Co. St. Paul, Minn.) with a cotton swab. The reflectance spectra had Hunter coordinates of: […]

Data set [2] is described as follows: Solubility in capsule fill solvents. In kind it is physicochemical. As to the method:
The encapsulation process requires the color-forming ligand be dissolved in a solvent or mixed solvents, because of the nature of the procedure. Formation of a microcapsule shell as by condensation of urea or melamine with an aldehyde such as formaldehyde or mixtures of aldehydes to form the capsule shell is carried out in an acidic aqueous medium and the color-former solution must be insoluble and unreactive to these reagents for the encapsulation to proceed. Solvents commonly used include tributyl phosphate, diethyl phthalate, and cyclohexane. […] As mentioned above, solubility of yellow color-formers exemplified by structure I in nonaqueous solvents such as those used in the encapsulation process may be increased by substituting alkyl, aryl, aralkyl, alkenyl, or such groups for the hydrogens on the various positions available in the structure I above.
This color observed on the CF sheet was yellow. […] Solubility in a solvent blend of tributyl phosphate, diethyl phthalate and cyclohexane (capsule solvents for preparing carbonless copy-paper) was >9% by weight. Thus the ligand is eminently suitable for encapsulation. The ligand is not volatile at 71 ° C. overnight.
Solubility in a solvent blend of tributyl phosphate, diethyl phthalate and cyclohexane (capsule solvents for preparing carbonless copy-paper) was 3% by weight. Thus the ligand is eminently suitable for encapsulation. The ligand is not volatile at 71 ° C. overnight.
*THE SOLUBILITY WAS DEEMED PREFERABLE IF IT WAS GREATER THAN 2% IN THE
FILL MIX AT ROOM TEMPERATURE FOR 3 DAYS. THE FILL MIX COMPRISED
TRIBUTYLPHOSPHATE (26.5%); DIETHYLPHTHALATE (17.6%); AND CYCLOHEXANE

The mark [3] stands for this setting: 1% solution in encapsulation fill mix swabbed onto 3M CF sheet (Experiments 2, 3).
[4] abbreviates: Ni(II) complex, swab concn. 1%, 45°/0° reflectance, illuminant C (Table 2).

Turning to `CC(C)(C)c1cc(C=NN=C(N)C(N)=NN=Cc2cc(C(C)(C)C)cc(C(C)(C)C)c2O)c(O)c(C(C)(C)C)c1` [Compound 1, ethanediimidic acid bis[(3,5-di-t-butylsalicylidene)hydrazide]], in data set [1] (setting [3]), the “Hunter coordinate L” value came out at 79.8, the Hunter coordinate a is reported as -2.1 and the Hunter coordinate b was found to be 39.3. The “color observed on the CF sheet” value in data set [1] (1% solution swabbed (Experiments 2, 3)) is on record as “yellow”. In addition, the Chroma in data set [1] (C=(a^2 +b^2)^1/2, Ni(II) complex, swab concn. 1% (Table 2)) worked out at 39.3. In data set [1] (Ni(II) complex, swab concn. 1% (Table 2)), the “Image Color” value is listed as “Yellow”. Moreover, in data set [1] (setting [4]), the “Hunter Coordinates L” value is reported as 79.8, the “Hunter Coordinates a” value is listed as -2.1 and the “Hunter Coordinates b” value is 39.3. Also, in data set [2], the “Solubility in a solvent blend of tributyl phosphate, diethyl phthalate and cyclohexane” value is over 9 % by weight; the “solubility in encapsulation / capsule solvents (in words)” value is “very soluble in encapsulation solvents”. The “Dye Solubility” value in data set [2] (4320 min) is over 9.0%.
